{"source": "patent US20220193242A1", "about": "“IMMUNOPHILIN-DEPENDENT INHIBITORS AND USES THEREOF” (The Regents of the University of California, priority 2019, published 2022)", "key": {"FKBP12 [1]": {"target": "T1, FKBP12 (Homo sapiens, UniProt P62942)", "T1 sequence (P62942 whole entry)": "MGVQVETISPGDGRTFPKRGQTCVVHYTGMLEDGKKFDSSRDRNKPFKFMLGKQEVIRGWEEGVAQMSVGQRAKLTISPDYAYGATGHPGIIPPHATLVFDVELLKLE", "test": "Fluorescence polarization assay of binding to FKBP12"}, "Src and HA-FKBP12": {"target": "T2, Src and HA-FKBP12 (Homo sapiens, UniProt P12931+P62942)", "T2 construct": "endogenous in cells; host or cells: Jurkat cell lysate (Src); HA-FKBP12 added as purified protein", "T2 sequence (P12931 2-536 limits assumed)": "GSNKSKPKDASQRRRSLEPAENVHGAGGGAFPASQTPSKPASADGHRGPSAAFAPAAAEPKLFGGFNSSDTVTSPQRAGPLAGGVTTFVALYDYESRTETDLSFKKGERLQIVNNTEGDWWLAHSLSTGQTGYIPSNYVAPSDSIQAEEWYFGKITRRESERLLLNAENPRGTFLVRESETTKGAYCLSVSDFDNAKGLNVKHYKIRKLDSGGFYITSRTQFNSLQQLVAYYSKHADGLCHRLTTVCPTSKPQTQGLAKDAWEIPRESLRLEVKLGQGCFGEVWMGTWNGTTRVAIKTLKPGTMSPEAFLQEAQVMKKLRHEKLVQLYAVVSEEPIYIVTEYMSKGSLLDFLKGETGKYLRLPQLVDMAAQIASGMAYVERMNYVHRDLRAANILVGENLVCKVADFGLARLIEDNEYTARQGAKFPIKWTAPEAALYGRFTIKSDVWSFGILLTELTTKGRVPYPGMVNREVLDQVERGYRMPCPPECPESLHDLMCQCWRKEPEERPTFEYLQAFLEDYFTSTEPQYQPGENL", "T2 sequence (P62942 whole entry)": "as the sequence (P62942 whole entry) above", "test": "Immunoprecipitation of HA-FKBP12 from Jurkat cell lysate", "assay_type": "binding", "settings": "Jurkat cell lysate 1 mg/mL, 1 μM compound", "method": "FIGS. 2A-2C. […] Fractions of 0.5 mL were collected and analyzed by SDS-PAGE.\nFIG. 23. […] Pulldown was performed with Jurkat cell lysate (1 mg/mL, 200 μL), supplemented with 2 μg HA-FKBP12. Pulldown/wash buffer: 50 mM Tris 7.4, 120 mM NaCl, 1% NP-40, 1 mM EDTA, phosphatase/protease inhibitors."}, "HRAS, CypA, Sos": {"target": "HRAS, CypA, Sos (Homo sapiens, UniProt P01112+P62937, M72C)", "test": "HRAS.CypA ternary complex and Sos-mediated nucleotide exchange", "assay_type": "biochemical", "method": "FIG. 44. […] Assay conditions: 1 μM Ras.GDP, 1 μM Mant-GDP, 20 mM EPES 7.5, 150 mM NaCl, 10 mM EDTA or 1 μM Sos. 95A is synonymous to 06-031."}, "Ras.Raf binding": {"system": "Ras.Raf binding", "test": "Ras.Raf binding pulldown", "settings": "HRAS.CypA ternary complex", "method": "FIG. 45. […] Pulldown conditions: 100 nM KRAS, 50 μg/mL BSA, 20 mM HEPES 7.5, 150 mM NaCl, 5 mM MgCl2, 1 mM […], 1% NP-40. GppNHp loaded proteins were prepared by EDTA-mediated nucleotide exchange."}, "[2]": {"system": "TCR signaling (phospho-tyrosine) in Jurkat cells", "test": "CD3 crosslinking (OKT3) triggered T cell activation in Jurkat cells, Western blot", "assay_type": "cell-based", "method": "(§1) FIGS. 3A-3D. […] The phosphotyrosine levels were monitored by Western blot at various time points over 24 h.\nFIG. 25. […] Jurkat cells (1×10^6/mL) were treated with the indicated drugs for 1 h, then stimulated with anti-CD3 mAb OKT3 (5 μg/mL) for 5 min. before lysis and analysis."}, "[3]": {"system": "phosphotyrosine levels in Jurkat cells", "test": "Drug washout, phosphotyrosine levels over 24 h in Jurkat cells", "assay_type": "cell-based", "settings": "100 nM for 1 h", "method": "as §1\nFIG. 26. […] Jurkat cells (1×10^6/mL) were treated with 100 nM of the indicated compounds for 1 h, then were washed 3 times with PBS and resuspended in culture media. Samples were taken at the indicated time points and lysed immediately."}, "K562": {"system": "K562", "settings": "K562, 72 h treatment", "method": "FIG. 27. […] K562 (seeding density 5×10^4/mL) cells, 72 h treatment."}, "FKBP12 [4]": {"target": "T1, FKBP12", "test": "FKBP12 dependence of activity (FIG. 19)"}, "[5]": {"system": "139 kinases captured by the probe XO44", "test": "In-cell kinase occupancy profiling with chemoproteomic probe XO44 in Jurkat cells", "assay_type": "cell-based", "settings": "100 nM, among 139 kinases captured by XO44, Jurkat cells"}, "HER2": {"system": "HER2", "test": "HER2 signaling in SK-BR-3 cells", "assay_type": "cell-based", "settings": "1 μM", "from_the_text": "(§2) FIGS. 4A-4C. A general approach to construct FKBP-dependent, programmable kinase inhibitors. (FIG. 4A) Structures of lapatinib and FK-lapatinib, their effects on HER2 signaling and the growth inhibition of SK-BR-3 cells by these compounds. (FIGS. 4B-4C) Structures of GNE7915 and FK-GNE7915 and their inhibition of LRRK2 autophosphorylation.\n(§3) We extended our design strategy and prepared two other bispecific ligands based on the structures of an FDA-approved HER2/EGFR inhibitor (lapatinib) and an LRRK2 inhibitor in clinical development (GNE7915). […] With the three case studies presented above, we cautiously anticipate that the same workflow could be applied to convert other kinase inhibitors into FKBP-dependent formats with similar if not better cellular activities."}, "SK-BR-3 cells": {"system": "SK-BR-3 cells", "test": "Growth inhibition of SK-BR-3 cells", "assay_type": "cell-based", "from_the_text": "as §2, §3"}, "LRRK2": {"system": "LRRK2", "test": "Inhibition of LRRK2 autophosphorylation", "assay_type": "cell-based", "method": "as §2\nFIG. 30. […] 3T3 or RAW264.7 cells (MJFF cell line), 2 h treatment.\nas §3"}, "KRAS and CypA": {"target": "KRAS and CypA (Homo sapiens, UniProt P01116+P62937, G12C)", "test": "Melting curve of the KRAS.CypA complex", "assay_type": "binding"}}, "data": [{"molecule": "CO[C@H]1C[C@@H](C)C/C(C)=C/[C@@H](CCCC(=O)N2CCN(c3cc(Nc4ncc(C(=O)Nc5c(C)cccc5Cl)s4)nc(C)n3)CC2)C(=O)C[C@H](O)[C@@H](C)[C@@H](/C(C)=C/[C@@H]2CC[C@@H](O)[C@H](OC)C2)OC(=O)[C@@H]2CCCCN2C(=O)C(=O)[C@]2(O)O[C@H]1[C@@H](OC)C[C@H]2C", "note": "[FK506-Dasatinib]", "values": [{"measurement": "Kd", "setting": "FKBP12 [1]", "result": 23, "unit": "nM"}]}, {"molecule": "C=CC[C@@H]1/C=C(\\C)C[C@H](C)C[C@H](OC)[C@H]2O[C@@](O)(C(=O)C(=O)N3CCCC[C@H]3C(=O)O[C@H](/C(C)=C/[C@@H]3CC[C@@H](O)[C@H](OC)C3)[C@H](C)[C@@H](O)CC1=O)[C@H](C)C[C@@H]2OC", "note": "[FK506, tacrolimus, reference compound]", "values": [{"measurement": "co-immunoprecipitation of Src with HA-FKBP12", "setting": "Src and HA-FKBP12", "result": "not"}]}, {"molecule": "C=CC(=O)Nc1cc(Cl)cc(NC(=O)c2cnn(-c3ccc(OCC(=O)N4CCN(C(=O)CCC[C@@H](C)[C@@H](O)[C@H]5C(=O)N[C@@H](CC)C(=O)N(C)CC(=O)N(C)[C@@H](CC(C)C)C(=O)N[C@@H](C(C)C)C(=O)N(C)[C@@H](CC(C)C)C(=O)N[C@@H](C)C(=O)N[C@H](C)C(=O)N(C)[C@@H](CC(C)C)C(=O)N(C)[C@@H](CC(C)C)C(=O)N(C)[C@@H](C(C)C)C(=O)N5C)CC4)cc3)c2C(F)(F)F)c1", "note": "[Compound 08-058]", "values": [{"measurement": "Sos-mediated nucleotide exchange", "setting": "HRAS, CypA, Sos; 1 μM Ras.GDP, 1 μM Mant-GDP, 1 μM Sos", "result": "inhibits Sos-mediated nucleotide exchange"}, {"measurement": "ternary complex formation", "setting": "HRAS, CypA, Sos; HRAS, CypA", "result": "forms a ternary complex"}, {"measurement": "Ras.Raf binding", "setting": "Ras.Raf binding", "result": "does not seem to impair Ras.Raf binding"}]}, {"molecule": "CO[C@H]1C[C@@H](C)C/C(C)=C/[C@@H](CCCC(=O)N2CCN(c3cc(Nc4ncc(C(=O)Nc5c(C)cccc5Cl)s4)nc(C)n3)CC2)C(=O)C[C@H](O)[C@@H](C)[C@@H](/C(C)=C/[C@@H]2CC[C@@H](O)[C@H](OC)C2)OC(=O)[C@@H]2CCCCN2C(=O)C(=O)[C@]2(O)O[C@H]1[C@@H](OC)C[C@H]2C", "note": "[Compound 05-022]", "values": [{"measurement": "co-immunoprecipitation of Src with HA-FKBP12", "setting": "Src and HA-FKBP12", "result": "form a stable ternary complex"}, {"measurement": "inhibition of phosphotyrosine signal", "setting": "[2]", "result": "potently inhibits"}, {"measurement": "durability of effect after washout", "setting": "[3]; washed 3 times with PBS", "result": "durable after washout"}, {"measurement": "growth inhibition", "setting": "K562", "result": "FKBP-dependent growth inhibition"}, {"measurement": "dependence of activity on FKBP12", "setting": "FKBP12 [4]", "result": "dependent on FKBP12"}]}, {"molecule": "Cc1nc(Nc2ncc(C(=O)Nc3c(C)cccc3Cl)s2)cc(N2CCN(CCO)CC2)n1", "note": "[dasatinib, reference compound]", "values": [{"measurement": "number of kinases inhibited >70%", "setting": "[5]", "result": 9}, {"measurement": "time after drug washout at which phosphotyrosine signal is restored", "setting": "[3]; then drug removed", "result": "≤ 1", "unit": "h"}]}, {"molecule": "CO[C@H]1C[C@@H](C)C/C(C)=C/[C@@H](CCCC(=O)N2CCN(Cc3ccc(-c4ccc5ncnc(Nc6ccc(OCc7cccc(F)c7)c(Cl)c6)c5c4)o3)CC2)C(=O)C[C@H](O)[C@@H](C)[C@@H](/C(C)=C/[C@@H]2CC[C@@H](O)[C@H](OC)C2)OC(=O)[C@@H]2CCCCN2C(=O)C(=O)[C@]2(O)O[C@H]1[C@@H](OC)C[C@H]2C", "note": "[FK-lapatinib]", "values": [{"measurement": "HER2 signaling", "setting": "HER2", "result": "suppressed"}, {"measurement": "IC50 of growth inhibition", "setting": "SK-BR-3 cells", "result": "comparable to that of lapatinib"}]}, {"molecule": "CCNc1nc(Nc2cc(F)c(C(=O)N3CCN(C(=O)CCC[C@@H]4/C=C(\\C)C[C@H](C)C[C@H](OC)[C@H]5O[C@@](O)(C(=O)C(=O)N6CCCC[C@H]6C(=O)O[C@H](/C(C)=C/[C@@H]6CC[C@@H](O)[C@H](OC)C6)[C@H](C)[C@@H](O)CC4=O)[C@H](C)C[C@@H]5OC)CC3)cc2OC)ncc1C(F)(F)F", "note": "[Compound 08-074]", "values": [{"measurement": "cellular activity compared to parent compound", "setting": "LRRK2; 3T3 or RAW264.7 cells, 2 h treatment", "result": "more potent cellular activity than its parent compound GNE-7915"}]}, {"molecule": "CCNc1nc(Nc2cc(F)c(C(=O)N3CCN(C(=O)CCC[C@@H]4/C=C(\\C)C[C@H](C)C[C@H](OC)[C@H]5O[C@@](O)(C(=O)C(=O)N6CCCC[C@H]6C(=O)O[C@H](/C(C)=C/[C@@H]6CC[C@@H](O)[C@H](OC)C6)[C@H](C)[C@@H](O)CC4=O)[C@H](C)C[C@@H]5OC)CC3)cc2OC)ncc1C(F)(F)F", "note": "[FK-GNE7915]", "values": [{"measurement": "inhibition of LRRK2 autophosphorylation compared to parent", "setting": "LRRK2", "result": "more efficacious than its parent molecule GNE7915"}]}, {"molecule": "C=CC(=O)N1CCN(c2nc(NCCC(=O)NCCNC(=O)CCC[C@@H](C)[C@@H](O)[C@H]3C(=O)N[C@@H](CC)C(=O)N(C)CC(=O)N(C)[C@@H](CC(C)C)C(=O)N[C@@H](C(C)C)C(=O)N(C)[C@@H](CC(C)C)C(=O)N[C@@H](C)C(=O)N[C@H](C)C(=O)N(C)[C@@H](CC(C)C)C(=O)N(C)[C@@H](CC(C)C)C(=O)N(C)[C@@H](C(C)C)C(=O)N3C)nc3c(F)c(-c4c(O)cccc4F)c(Cl)cc23)CC1", "note": "[Compound 07-014]", "values": [{"measurement": "melting curve of the complex", "setting": "KRAS and CypA", "result": "2-stage melting curve"}]}]}
